Laboratory results: US9902736B2, “1-oxo/acylation-14-acylated oridonin derivative, preparation method therefor and application thereof” (HANGZHOU BENSHENG PHARMACEUTICAL CO., LTD., priority 2012, dated 2018)
Converted amounts (≈) assume the structure as drawn.

Tests used:
[1] = test system: RPMI 8226; assay: Multiple myeloma cell growth inhibition, MTT, 72 h; assay type: cell-based; conditions: Homo sapiens
Description: Multiple myeloma cell lines: RPMI8226 (multiple myeloma), purchased from Fuxiang Bio-tech Co. Ltd., Shanghai, China.
(§1) 6000 well-growing cells were obtained and inoculated into wells of a 96-well cell culture plate. […] On the next day, the 1-oxo/acylated-14-acylated oridonin derivatives of different concentrations were added and mixed uniformly. The plate was placed in a carbon dioxide cell incubator (5% CO2) at 37° C. and incubated for 72 hours. Then the viable cell concentration was determined by MTT method.

[2] = test system: Hela; assay: Solid tumor cell growth inhibition, MTT, 72 h; assay type: cell-based, human; conditions: Homo sapiens, HeLa; 72 h, MTT
Description: (§2) 6000 well-growing human solid tumor cells were obtained and inoculated into wells of a 96-well cell culture plate. The culture medium was DMEM High Glucose cell culture medium containing 10% fetal bovine serum. The plate was placed in a carbon dioxide cell incubator (5% CO2) at 37° C. and incubated for 24 hours. After added with 1-oxo/acylated-14-acylated oridonin derivatives of different concentration and mixed uniformly, the plate was placed in a carbon dioxide cell incubator (5% CO2) at 37° C. and incubated for 72 hours. Then the viable cell concentration was determined by MTT method.

[3] = test system: Hep-2; assay: Solid tumor cell growth inhibition, MTT, 72 h; assay type: cell-based, human; conditions: Homo sapiens, HEp-2; 72 h, MTT
Description: as §2

[4] = test system: CNE; assay: Solid tumor cell growth inhibition, MTT, 72 h; assay type: cell-based, human; conditions: Homo sapiens, CNE; 72 h, MTT
Description: as §2

[5] = test system: MGC-803; assay: Solid tumor cell growth inhibition, MTT, 72 h; assay type: cell-based, human; conditions: Homo sapiens, MGC-803; 72 h, MTT
Description: as §2

[6] = test system: NB4; assay: Leukemia cell growth inhibition, MTT, 72 h; assay type: cell-based, human; conditions: Homo sapiens, NB-4; 72 h, MTT
Excerpt: (§3) Leukemia cell lines: leukemia cell lines: K562/adr (drug-resistant, chronic myeloid leukemia, CML), NB4 (acute promyelocytic leukemia, AML), Kasumi-1 (acute myeloid leukemia M2 type, AML-M2), Jurkat (acute lymphoblastic leukemia, ALL), all of which were donated by Cancer Research Institute of Zhejiang University, China; and H9 (acute lymphoblastic leukemia, ALL), which was purchased from China Center for Type Culture Collection.
as §1, with “6000 well-growing leukemia cells were” for “6000 well-growing cells were”, “C. and was incubated for” for “C. and incubated for”

[7] = test system: Jurkat; assay: Leukemia cell growth inhibition, MTT, 72 h; assay type: cell-based, human; conditions: Homo sapiens, Jurkat; 72 h, MTT
Excerpt: as §3
as §1, with “6000 well-growing leukemia cells were” for “6000 well-growing cells were”, “C. and was incubated for” for “C. and incubated for”

[8] = test system: H9; assay: Leukemia cell growth inhibition, MTT, 72 h; assay type: cell-based, human; conditions: Homo sapiens, H9; 72 h, MTT
Excerpt: as §3
as §1, with “6000 well-growing leukemia cells were” for “6000 well-growing cells were”, “C. and was incubated for” for “C. and incubated for”

[9] = test system: RKO; assay: Solid tumor cell growth inhibition, MTT, 72 h; assay type: cell-based; conditions: Homo sapiens
Description: as §2

[10] = test system: Becap-37; assay: Solid tumor cell growth inhibition, MTT, 72 h; assay type: cell-based; conditions: Homo sapiens
Description: as §2

[11] = test system: U87-MG; assay: Solid tumor cell growth inhibition, MTT, 72 h; assay type: cell-based; conditions: Homo sapiens, U-87 MG
Description: as §2

[12] = test system: SK-OV-3; assay: Solid tumor cell growth inhibition, MTT, 72 h; assay type: cell-based; conditions: Homo sapiens, SK-OV-3, 72 h, MTT; for IC50: read-out: IC50 SK-OV-3; for IC90: read-out: IC90 SK-OV-3
Description: as §2

[13] = test system: PC-3; assay: Solid tumor cell growth inhibition, MTT, 72 h; assay type: cell-based; conditions: Homo sapiens
Description: as §2

[14] = test system: Hep G2; assay: Solid tumor cell growth inhibition, MTT, 72 h; assay type: cell-based; conditions: Homo sapiens, HepG2
Description: as §2

[15] = test system: PANC-1; assay: Solid tumor cell growth inhibition, MTT, 72 h; assay type: cell-based; conditions: Homo sapiens
Description: as §2

[16] = test system: MG-63; assay: Solid tumor cell growth inhibition, MTT, 72 h; assay type: cell-based; conditions: Homo sapiens
Description: as §2

[17] = test system: A549; assay: Solid tumor cell growth inhibition, MTT, 72 h; assay type: cell-based; conditions: Homo sapiens
Description: as §2

[18] = test system: CaEs-17; assay: Solid tumor cell growth inhibition, MTT, 72 h; assay type: cell-based; conditions: Homo sapiens, CaEs17
Description: as §2

[19] = test system: Kasumi-1; assay: Leukemia cell growth inhibition, MTT, 72 h; assay type: cell-based; conditions: Homo sapiens
Excerpt: as §3
as §1, with “6000 well-growing leukemia cells were” for “6000 well-growing cells were”, “C. and was incubated for” for “C. and incubated for”

[20] = test system: K562/ADR; assay: Leukemia cell growth inhibition, MTT, 72 h; assay type: cell-based; conditions: Homo sapiens
Excerpt: as §3
as §1, with “6000 well-growing leukemia cells were” for “6000 well-growing cells were”, “C. and was incubated for” for “C. and incubated for”

| SMILES | IC50 [1] | IC90 [1] | IC50 [2] | IC90 [2] | IC50 [3] | IC90 [3] | IC50 [4] | IC90 [4] | IC50 [5] | IC90 [5] | IC50 [6] | IC90 [6] | IC50 [7] | IC90 [7] | IC50 [8] | IC90 [8] | IC50 [9] | IC90 [9] | IC50 [10] | IC90 [10] | other results |
| --- | --- | --- | --- | --- | --- | --- | --- | --- | --- | --- | --- | --- | --- | --- | --- | --- | --- | --- | --- | --- | --- |
| C=C1C(=O)[C@]23[C@H](OC(=O)C4CCN(S(=O)(=O)c5cccc([N+](=O)[O-])c5)CC4)[C@H]1CC[C@H]2[C@@]12CO[C@@]3(O)[C@@H](O)[C@@H]1C(C)(C)CCC2=O [BS-OR-037] | 1.7 µg/mL (≈ 2.58 µM) | 3.73 µg/mL (≈ 5.66 µM) | 3.41 µg/mL (≈ 5.18 µM) | 10.1 µg/mL (≈ 15.3 µM) | 3.58 µg/mL (≈ 5.43 µM) | 15.3 µg/mL (≈ 23.2 µM) | 2.95 µg/mL (≈ 4.48 µM) | 8.76 µg/mL (≈ 13.3 µM) | 3.18 µg/mL (≈ 4.83 µM) | 6.35 µg/mL (≈ 9.64 µM) | 0.35 µg/mL (≈ 0.531 µM) | 1.66 µg/mL (≈ 2.52 µM) | 1.16 µg/mL (≈ 1.76 µM) | 4.4 µg/mL (≈ 6.68 µM) | 1.64 µg/mL (≈ 2.49 µM) | 3.46 µg/mL (≈ 5.25 µM) | 0.91 µg/mL (≈ 1.38 µM) | 1.84 µg/mL (≈ 2.79 µM) | 2.75 µg/mL (≈ 4.17 µM) | 7.47 µg/mL (≈ 11.3 µM) | IC50 [11]: 1.86 µg/mL (≈ 2.82 µM); IC90 [11]: 4.68 µg/mL (≈ 7.1 µM); IC50 [12]: 3.48 µg/mL (≈ 5.28 µM); IC90 [12]: 7.08 µg/mL (≈ 10.7 µM); IC50 [13]: 3.48 µg/mL (≈ 5.28 µM); IC90 [13]: 7.08 µg/mL (≈ 10.7 µM); IC50 [14]: 3.33 µg/mL (≈ 5.06 µM); IC90 [14]: > 16 µg/mL; IC50 [15]: 4.98 µg/mL (≈ 7.56 µM); IC90 [15]: 11.1 µg/mL (≈ 16.8 µM); IC50 [16]: 1.2 µg/mL (≈ 1.82 µM); IC90 [16]: 3.1 µg/mL (≈ 4.71 µM); IC50 [17]: 5.72 µg/mL (≈ 8.68 µM); IC90 [17]: 10.1 µg/mL (≈ 15.4 µM); IC50 [18]: 3.07 µg/mL (≈ 4.66 µM); IC90 [18]: 11.2 µg/mL (≈ 16.9 µM); IC50 [19]: 1.41 µg/mL (≈ 2.14 µM); IC90 [19]: 3.19 µg/mL (≈ 4.84 µM); IC50 [20]: 1.32 µg/mL (≈ 2 µM); IC90 [20]: 3.6 µg/mL (≈ 5.47 µM) |
| C=C1C(=O)[C@]23[C@H](OC(=O)C4CCN(S(=O)(=O)c5ccccc5)CC4)[C@H]1CC[C@H]2[C@@]12CO[C@@]3(O)[C@@H](O)[C@@H]1C(C)(C)CCC2=O [BS-OR-032] | 1.34 µg/mL (≈ 2.18 µM) | 2.95 µg/mL (≈ 4.81 µM) | 2.63 µg/mL (≈ 4.29 µM) | 5.67 µg/mL (≈ 9.24 µM) | > 16 µg/mL | > 16 µg/mL | > 16 µg/mL | > 16 µg/mL | 12.7 µg/mL (≈ 20.7 µM) | > 16 µg/mL | 4.09 µg/mL (≈ 6.66 µM) | 9.77 µg/mL (≈ 15.9 µM) | 0.93 µg/mL (≈ 1.52 µM) | 6.15 µg/mL (≈ 10 µM) | 6.71 µg/mL (≈ 10.9 µM) | 12.7 µg/mL (≈ 20.7 µM) | 0.89 µg/mL (≈ 1.45 µM) | 1.99 µg/mL (≈ 3.24 µM) | 2.93 µg/mL (≈ 4.77 µM) | 10.5 µg/mL (≈ 17.1 µM) | IC50 [11]: 1.26 µg/mL (≈ 2.05 µM); IC90 [11]: 4.56 µg/mL (≈ 7.43 µM); IC50 [12]: 3.07 µg/mL (≈ 5 µM); IC90 [12]: 5.41 µg/mL (≈ 8.81 µM); IC50 [13]: 3.07 µg/mL (≈ 5 µM); IC90 [13]: 5.41 µg/mL (≈ 8.81 µM); IC50 [14]: 3.17 µg/mL (≈ 5.17 µM); IC90 [14]: ≥ 17.2 µg/mL; IC50 [15]: 3.61 µg/mL (≈ 5.88 µM); IC90 [15]: 7.88 µg/mL (≈ 12.8 µM); IC50 [16]: 0.98 µg/mL (≈ 1.6 µM); IC90 [16]: 1.97 µg/mL (≈ 3.21 µM); IC50 [17]: 5.68 µg/mL (≈ 9.25 µM); IC90 [17]: 9.98 µg/mL (≈ 16.3 µM); IC50 [18]: 1.62 µg/mL (≈ 2.64 µM); IC90 [18]: 11.7 µg/mL (≈ 19.1 µM); IC50 [19]: 1.5 µg/mL (≈ 2.44 µM); IC90 [19]: 2.92 µg/mL (≈ 4.76 µM); IC50 [20]: 1.09 µg/mL (≈ 1.78 µM); IC90 [20]: 2.97 µg/mL (≈ 4.84 µM) |
| C=C1C(=O)[C@]23[C@H](OC(=O)c4ccncc4)[C@H]1CC[C@H]2[C@@]12CO[C@@]3(O)[C@@H](O)[C@@H]1C(C)(C)CCC2=O [BS-OR-012] | 0.92 µg/mL (≈ 1.97 µM) | 3.48 µg/mL (≈ 7.44 µM) | 2.42 µg/mL (≈ 5.18 µM) | 6.3 µg/mL (≈ 13.5 µM) | 3.61 µg/mL (≈ 7.72 µM) | 14.7 µg/mL (≈ 31.5 µM) | 2.47 µg/mL (≈ 5.28 µM) | 9.36 µg/mL (≈ 20 µM) | 1.79 µg/mL (≈ 3.83 µM) | 3.99 µg/mL (≈ 8.53 µM) | 0.32 µg/mL (≈ 0.684 µM) | 1.3 µg/mL (≈ 2.78 µM) | 0.99 µg/mL (≈ 2.12 µM) | 5.77 µg/mL (≈ 12.3 µM) | 0.75 µg/mL (≈ 1.6 µM) | 1.99 µg/mL (≈ 4.26 µM) | 1.01 µg/mL (≈ 2.16 µM) | 1.98 µg/mL (≈ 4.24 µM) | 2.39 µg/mL (≈ 5.11 µM) | 6.29 µg/mL (≈ 13.5 µM) | IC50 [11]: 1.88 µg/mL (≈ 4.02 µM); IC90 [11]: 6.17 µg/mL (≈ 13.2 µM); IC50 [12]: 3.48 µg/mL (≈ 7.44 µM); IC90 [12]: 7.54 µg/mL (≈ 16.1 µM); IC50 [13]: 3.48 µg/mL (≈ 7.44 µM); IC90 [13]: 7.54 µg/mL (≈ 16.1 µM); IC50 [14]: 3.01 µg/mL (≈ 6.44 µM); IC90 [14]: 16 µg/mL (≈ 34.2 µM); IC50 [15]: 4.11 µg/mL (≈ 8.79 µM); IC90 [15]: 10.2 µg/mL (≈ 21.8 µM); IC50 [16]: 0.99 µg/mL (≈ 2.12 µM); IC90 [16]: 3.84 µg/mL (≈ 8.21 µM); IC50 [17]: 5.55 µg/mL (≈ 11.9 µM); IC90 [17]: 10.7 µg/mL (≈ 22.9 µM); IC50 [18]: 2.01 µg/mL (≈ 4.3 µM); IC90 [18]: 10 µg/mL (≈ 21.5 µM); IC50 [19]: 1.15 µg/mL (≈ 2.46 µM); IC90 [19]: 2.39 µg/mL (≈ 5.11 µM); IC50 [20]: 0.75 µg/mL (≈ 1.6 µM); IC90 [20]: 3.2 µg/mL (≈ 6.84 µM) |
